In ChEMBL document CHEMBL1129721, “Application of the Heck reaction in the synthesis of truncated naphthoic acid retinoids” (1996):
The source made the active and inactive calls. No cut-off for these calls is given here.

How the values were obtained:
Mus musculus = organism: Mus musculus; experiment: Concentration that induces 30% utriculi reduction in rhino mouse.; format: functional
[1] = biological target: T1, Retinoic acid receptor alpha (Homo sapiens) (UniProt P10276); experiment: Transcriptional activation of retinoic acid RAR-alpha receptor; Not active
T1 sequence (whole entry): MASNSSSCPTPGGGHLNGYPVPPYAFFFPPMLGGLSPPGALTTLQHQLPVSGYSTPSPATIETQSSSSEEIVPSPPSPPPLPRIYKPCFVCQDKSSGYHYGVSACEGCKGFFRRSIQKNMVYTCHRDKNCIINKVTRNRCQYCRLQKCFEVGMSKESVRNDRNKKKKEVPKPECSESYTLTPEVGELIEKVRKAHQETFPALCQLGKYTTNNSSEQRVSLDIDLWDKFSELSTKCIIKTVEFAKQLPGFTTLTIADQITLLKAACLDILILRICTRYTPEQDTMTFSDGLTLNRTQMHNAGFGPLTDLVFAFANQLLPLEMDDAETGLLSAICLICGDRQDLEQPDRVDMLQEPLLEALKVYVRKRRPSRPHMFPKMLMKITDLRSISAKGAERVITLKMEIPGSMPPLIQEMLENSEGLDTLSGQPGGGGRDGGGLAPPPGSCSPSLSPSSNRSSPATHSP

[2] = biological target: T2, Retinoic acid receptor beta (Homo sapiens) (UniProt P10826); experiment: Transcriptional activation of retinoic acid RAR-beta receptor; Not active
T2 sequence (whole entry): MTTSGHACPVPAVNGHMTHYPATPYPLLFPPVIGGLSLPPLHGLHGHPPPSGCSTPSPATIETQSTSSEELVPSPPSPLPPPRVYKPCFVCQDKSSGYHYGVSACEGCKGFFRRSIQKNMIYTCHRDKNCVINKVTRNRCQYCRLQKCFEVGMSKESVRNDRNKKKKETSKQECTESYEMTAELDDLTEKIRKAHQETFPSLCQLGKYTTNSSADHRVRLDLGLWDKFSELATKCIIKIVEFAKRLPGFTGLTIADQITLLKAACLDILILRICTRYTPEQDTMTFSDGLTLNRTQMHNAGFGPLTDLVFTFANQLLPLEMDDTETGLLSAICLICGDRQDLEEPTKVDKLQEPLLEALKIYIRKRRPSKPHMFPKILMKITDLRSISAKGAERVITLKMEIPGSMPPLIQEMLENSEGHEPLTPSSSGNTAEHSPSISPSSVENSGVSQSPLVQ

[3] = biological target: T3, Retinoic acid receptor gamma (Homo sapiens) (UniProt P13631); experiment: Transcriptional activation of retinoic acid RAR-gamma receptor; Not active
T3 sequence (whole entry): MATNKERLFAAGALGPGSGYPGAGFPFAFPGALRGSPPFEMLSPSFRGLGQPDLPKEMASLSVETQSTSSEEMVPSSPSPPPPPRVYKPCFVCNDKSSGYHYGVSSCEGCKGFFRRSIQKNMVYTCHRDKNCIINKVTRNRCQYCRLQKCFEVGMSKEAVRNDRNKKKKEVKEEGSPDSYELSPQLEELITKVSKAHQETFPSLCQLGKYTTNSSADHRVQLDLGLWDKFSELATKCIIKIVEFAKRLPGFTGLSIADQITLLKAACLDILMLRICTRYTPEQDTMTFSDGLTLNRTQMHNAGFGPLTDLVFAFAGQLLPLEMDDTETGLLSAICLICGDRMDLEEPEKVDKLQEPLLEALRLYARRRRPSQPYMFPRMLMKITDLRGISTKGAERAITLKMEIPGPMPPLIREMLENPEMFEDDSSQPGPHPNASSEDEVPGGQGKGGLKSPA

| SMILES | EC50 ratio [1] | EC50 ratio [2] | EC50 ratio [3] | ED30 (Mus musculus) [µM] |
| --- | --- | --- | --- | --- |
| C/C(=C\c1ccc(C(=O)c2ccc3c(c2)C(C)(C)CCC3(C)C)cc1)C(=O)O | – | – | – | 92 |
| CC1(C)CCC(C)(C)c2cc(C(=O)c3ccc4cc(C(=O)O)ccc4c3)ccc21 | – | – | – | 29 |
| CC1(C)CCC(C)(C)c2cc(C(O)c3cccc(/C=C/C(=O)O)c3)ccc21 (stereo unspecified) | inactive | inactive | inactive | – |
| CC1(C)CCC(C)(C)c2cc(C(O)c3ccc4cc(C(=O)O)ccc4c3)ccc21 (stereo unspecified) | – | – | – | 223 |
| CC1(C)CCC(C)(C)c2cc(C(O)/C=C/c3ccc(C(=O)O)cc3)ccc21 (stereo unspecified) | – | – | – | 65 |
| CC1(C)CCC(C)(C)c2cc(C(=O)c3ccc(/C=C/C(=O)O)cc3)ccc21 | – | – | – | 54 |
| CC1(C)CCC(C)(C)c2cc(C(=O)/C=C/c3ccc(C(=O)O)cc3)ccc21 | – | – | – | 3.4 |

Further lines, with some results ahead:

| EC50 ratio [1] | EC50 ratio [2] | EC50 ratio [3] | SMILES | ED30 (Mus musculus) [µM] |
| --- | --- | --- | --- | --- |
| inactive | – | – | CC1(C)CCC(C)(C)c2cc(C(=O)c3ccc(C#CC(=O)O)cc3)ccc21 | 1000 |
| inactive | inactive | – | CC1(C)CCC(C)(C)c2cc(C(=O)c3cccc(/C=C/C(=O)O)c3)ccc21 | – |
| inactive | inactive | inactive | CC1(C)CCC(C)(C)c2cc(C(O)c3ccc(/C=C/C(=O)O)cc3)ccc21 (stereo unspecified) | 1740 |
| inactive | – | – | C/C(=C\C(=O)O)c1ccc(C(=O)c2ccc3c(c2)C(C)(C)CCC3(C)C)cc1 | – |
| inactive | – | – | CC1(C)CCC(C)(C)c2cc(C(=O)c3ccc(/C=C\C(=O)O)cc3)ccc21 | – |
| inactive | – | – | Cc1cc(C(=O)c2ccc3c(c2)C(C)(C)CCC3(C)C)ccc1/C=C/C(=O)O | 184 |
